This note sets out measurements from article PMC5398486, “Cheminformatics-aided discovery of small-molecule Protein-Protein Interaction (PPI) dual inhibitors of Tumor Necrosis Factor (TNF) and Receptor Activator of NF-κB Ligand (RANKL)” (PLoS Computational Biology, 2017).

SMILES strings stand for the structures. Like-named read-outs stand apart in the source and are kept apart here.

For test [1], the target named is T1, TNF/TNFR1 interaction (Homo sapiens, UniProt P01375).
T1 construct: purchased PeproTech
Briefly: TNF/TNFR1 ELISA assay. In kind it is binding. As for the experimental part:
96-well plates were coated with 0.1 mg/mL recombinant soluble human TNFR1 (PeproTech) in PBS overnight at 4°C. […] After two consecutive rounds of washes, plates were incubated with a rabbit anti-human-TNF antibody (provided by Prof. W. A. Buurman, University of Maastricht) and an anti-rabbit secondary antibody conjugated with HRP (Vector Laboratories). Both incubations were for 1 h and were performed at room temperature. Following a last round of washes, the signal was finally developed using the TMB Substrate Kit (ThermoFisher Scientific) and was measured spectrophotometrically at 450 nm. Experiments were performed in triplicate. Having established that the selected compounds obstruct TNF function, and since TNF exerts its functions mainly through interacting with the TNFR1 receptor, a further test was performed to evaluate the effect of inhibition on this protein-receptor interaction.

The target of test [2] is T2, RANKL (Homo sapiens, UniProt O14788).
T2 sequence (O14788 143-317): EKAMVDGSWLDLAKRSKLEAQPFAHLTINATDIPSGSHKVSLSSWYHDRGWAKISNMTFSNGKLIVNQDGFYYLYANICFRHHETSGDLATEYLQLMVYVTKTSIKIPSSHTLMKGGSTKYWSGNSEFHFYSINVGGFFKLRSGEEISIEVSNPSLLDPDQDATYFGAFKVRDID
Briefly: Fluorescence-based binding affinity assay, RANKL. The conditions noted are these: for 'n' value from Scatchard plot (ligand binding sites per protein molecule): RANKL, binding assay raw data. As for the experimental part: For use in the binding assays, recombinant TNF and RANKL were expressed and purified as previously described.[84–86] Fluorescence intensity was measure with a Synergy H1 Multi-Mode Reader (BioTek) in 96-well microplates (black) at 25°C. […] During preparation of the solutions the buffer was firstly added to all wells followed by the ligand solution and finally the protein was added. All solutions were mixed by pipetting and equilibrated for 1h at 25°C before measurement. […] Experiments were performed for TNF in 10 mM citrate-phosphate (pH 6.5) and for RANKL in 25 mM Tris–HCl buffer, 100 mM NaCl (pH 7.5); both buffers were supplemented with PEG3350 at the concentrations indicated in the respective figures. Kd values were calculated as mean ± SEM from three independent experiments.
Differences in fluorescence intensity between the protein/ligand complex and free protein (or free ligand) were analysed as previously described in [Papaneophytou et al. (2013) ACS Med Chem Lett. 4: 137-141] (Eq. S6) in order to determine the dissociation constant (Kd) of the various protein-ligand systems.
In Eq. (S6) Fobs is the observed fluorescence intensity; FBG is the fluorescence background signal; MFLF [picture] and PF are the molar fluorescence and concentration of free protein, respectively; FR is the fluorescence ratio of bound protein (or bound ligand in the case of a fluorescence ligand); LT and PT are the total concentrations of ligand and protein, respectively. A detailed analysis of the development of the fluorescence ligand-binding assay is given in [Papaneophytou et al. (2013) ACS Med Chem Lett. 4: 137-141].

Test [3] has as its target TNF (Homo sapiens, UniProt P01375). Kind of test: TNF-induced death assay in L929 cells. In kind it is cell-based. More on the design: purchased PeproTech. Conditions: 0.25 ng/mL human TNF + 2 μg/mL actinomycin D, approx. 24 h, read-out: L929 IC50 (inhibition of TNF-induced death). As for the experimental part:
L929 cells were cultured on 96-well plates (3×10^4 cells/well) overnight. Then, 0.25 ng/mL human TNF (PeproTech) and 2 μg/mL actinomycin D (Sigma–Aldrich) were added. TNF with the compounds were pre-incubated for 30 min at room temperature before adding them to cells to assess inhibition. Background death was estimated using an actinomycin D treated-only control. After approximately 24 h, dead cells were cleared away by washing with PBS. The remaining live cells were then fixed with methanol and stained with crystal violet. After solubilization with acetic acid, staining was quantified spectrophotometrically at 570 nm. Cytotoxicity is expressed with respect to the background death control and also relative to the toxicity of compounds. Experiments were repeated three times.
Biological screening of the compounds examined their capacity to block TNF function in a modified TNF bioactivity assay.[91] The basis of this test is the death-inducing function of TNF in the murine fibrosarcoma cell line L929 following sensitization by the transcription inhibitor actinomycin D. Functional potency of the compounds would translate in a significant reduction of TNF-induced death. Using this approach, out of the nine shortlisted small molecules, two compounds (T8 and T23) were selected as follows. […]

Where [4] appears, read: RANKL 0.5 μM, PEG3350 2.5%, 25 mM Tri-HCl, 100 mM NaCl pH 7.5, read-out: Binding affinity (Kd), RANKL.
The mark [5] stands for this setting: RANKL 0.5 μM, PEG3350 5%, 25 mM Tri-HCl, 100 mM NaCl pH 7.5, read-out: Binding affinity (Kd), RANKL.
[6] abbreviates: RANKL 1.5 μM, PEG3350 5%, 25 mM Tri-HCl, 100 mM NaCl pH 7.5, read-out: Binding affinity (Kd), RANKL.
[7] abbreviates: RANKL 2.5 μM, PEG3350 5%, 25 mM Tri-HCl, 100 mM NaCl pH 7.5, read-out: Binding affinity (Kd), RANKL.
Where [8] appears, read: fluorescence assay, 25°C, 25 mM Tris-HCl, 100 mM NaCl, pH 7.5, 5% PEG3350, read-out: Kd (RANKL complexes).

T1 sequence (P01375 77-233 limits assumed): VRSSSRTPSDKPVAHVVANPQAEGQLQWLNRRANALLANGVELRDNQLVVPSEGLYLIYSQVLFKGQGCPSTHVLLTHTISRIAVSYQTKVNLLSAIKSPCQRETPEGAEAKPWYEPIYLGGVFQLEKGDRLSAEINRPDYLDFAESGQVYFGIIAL
Sequence of TNF (P01375 77-233 limits assumed): as above

With `O=C(NNC(=NS(=O)(=O)c1ccc(-n2nc(C(F)(F)F)cc2-c2cccs2)cc1)N1CCCC1)c1ccc(Cl)cc1` [Compound T8, N-[(4-chlorobenzoyl)amino]-N'-[4-[5-thiophen-2-yl-3-(trifluoromethyl)pyrazol-1-yl]phenyl]sulfonylpyrrolidine-1-carboximidamide], the figures for the IC50 in test [1] and in test [3] were 30 ± 2.3 µM and 40 ± 2.3 µM, respectively. In addition, the dissociation constant (Kd) in test [2] (setting [4]) was found to be 6.15 ± 0.22 µM; in test [2] (setting [5]), 6.32 ± 0.62 µM; in test [2] (setting [6]) it was 6.55 ± 0.84 µM; in test [2] (setting [7]), 6.05 ± 0.37 µM; in test [2] (setting [8]) it was 6.3 ± 0.6 µM. Further, the “'n' value from Scatchard plot (ligand binding sites per protein molecule)” value in test [2] worked out at 1.
As to `COc1cc(OC(C)=O)c(-c2cc(OC(C)=O)c(OC)cc2OC(C)=O)cc1OC(C)=O` [Compound T23, [4-acetyloxy-2-(2,5-diacetyloxy-4-methoxyphenyl)-5-methoxyphenyl] acetate], the results for the IC50 in test [1] and in test [3] were 3 ± 0.1 µM and 17 ± 1.2 µM, respectively. Besides, the Kd in test [2] (RANKL 0.5 μM, PEG3350 0%, 25 mM Tri-HCl, 100 mM NaCl pH 7.5, read-out: Binding affinity (Kd), RANKL) was found to be 7.02 ± 0.63 µM; in test [2] (setting [4]) it was 7.44 ± 0.52 µM; in test [2] (setting [5]) it was 7.25 ± 0.44 µM; in test [2] (setting [6]) it was 7.62 ± 0.84 µM; in test [2] (setting [7]) it was 7.02 ± 0.33 µM; in test [2] (setting [8]), 7.3 ± 0.4 µM. The “'n' value from Scatchard plot (ligand binding sites per protein molecule)” value in test [2] turned out to be 1.

By IC50 is commonly meant the concentration that inhibits the measured activity by half. As a reminder, the Kd is the free concentration of one partner at which half of the binding sites on the other are occupied at equilibrium, for simple one-to-one binding.
